Reference: patent US10253081B2, “Glucagon analogues” (Zealand Pharma A/S, priority 2012, dated 2019)
*1 amine or outer side, *2 acyl side, *3 side chain or, on linkers, in order; H or OH if unused. Where a SMILES comes first, the peptide text is derived from it. Side-chain parts run from the residue outwards. [ ]: non-standard residue; d: D form. The star is where a group is joined. γGlu = O=C(O)[C@H](CCC(=O)[*:2])N[*:1]; Palmitoyl = CCCCCCCCCCCCCCCC(=O)*; Aib = CC(C)(N)C(=O)O

Assays:
Format in all cases: cell-based
[1] = molecular target: T1, human glucagon-like peptide 1 receptor (GLP-1R) (Homo sapiens, UniProt P43220); test: GLP-1 receptor efficacy assay (cAMP AlphaScreen, CHO cells); settings: Table 1B; for Ratio GLP-1/Glucagon: EC50 [GLP-1R]/EC50 [Glucagon-R]; for EC50: same protocol, different laboratory, read-out: EC50 hGLP-1R CHO-K1
T1 construct: expressed in transfected cells
T1 sequence (P43220 24-463): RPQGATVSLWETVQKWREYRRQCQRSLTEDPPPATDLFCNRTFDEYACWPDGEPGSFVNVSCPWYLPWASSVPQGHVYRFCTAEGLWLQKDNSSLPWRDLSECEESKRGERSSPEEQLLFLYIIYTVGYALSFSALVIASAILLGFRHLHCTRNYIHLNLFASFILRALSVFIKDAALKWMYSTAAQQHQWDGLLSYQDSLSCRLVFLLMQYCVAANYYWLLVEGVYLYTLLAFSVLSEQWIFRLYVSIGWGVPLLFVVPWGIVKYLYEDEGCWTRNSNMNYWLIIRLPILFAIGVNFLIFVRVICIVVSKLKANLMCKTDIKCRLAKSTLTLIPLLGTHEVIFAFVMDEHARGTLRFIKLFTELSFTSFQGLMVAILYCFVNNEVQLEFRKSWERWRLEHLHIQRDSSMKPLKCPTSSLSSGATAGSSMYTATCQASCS
Text: (§1) The cDNA encoding either the human glucagon receptor (Glucagon-R) (primary accession number P47871) or the human glucagon-like peptide 1 receptor (GLP-1R) (primary accession number P43220) were synthesized and cloned into a mammalian expression vector containing a Zeocin resistance marker.
(§2) The mammalian expression vectors encoding the Glucagon-R or the GLP-1-R were transfected into Chinese hamster ovary (CHO) cells by the Attractene method method. Stably expressing clones were obtained by Zeocin selection (250 μg/mL) upon limited dilution of cells resistant to the selection pressure. Glucagon-R and GLP-1-R cell clones expressing were picked, propagated and tested in the Glucagon-R and GLP-1-R efficacy assays as described below. One Glucagon-R expressing clone and one GLP-1-R expressing clone were chosen for compound profiling.
(§3) CHO cells expressing the human Glucagon-R, or human GLP-1-R were seeded 24 hours prior to the assay at 30,000 cells per well in 96-well microtiter plates in culture in 100 μl growth medium. On the day of analysis, growth medium was removed and the cells were washed once with 200 μl of assay buffer (Krebs-Ringer-buffer—KRBH). The buffer was removed and the cells were incubated for 15 min at room temperature in 10 μl KRBH (KRBH+10 mM HEPES, 5 mM NaHCO3, 0.1% (V/V) BSA) with 0.1 mM IBMX in deionized water containing increasing concentrations of test peptides. The reaction was stopped by the addition of lysis buffer (0.1% w/v BSA, 5 mM HEPES, 0.3% v/v Tween-20). After cell lysis for 10 min at room temperature, lysates were transferred to 384-well plates and 10 μl of acceptor/donorbead mixture as contained in the AlphaScreen™ cAMP Functional Assay Kit was added. After one hour of incubation at room temperature in the dark, the cAMP content was determined applying the AlphaScreen™ cAMP Functional Assay Kit from Perkin-Elmer according to manufacturer instructions. EC50 and relative efficacies compared to reference compounds (glucagon and GLP-1) were calculated applying computer aided curve fitting. The GLP-1/glucagon ratio is calculated as defined earlier.

[2] = molecular target: T2, endogenous GLP-1 receptors (Mus musculus, UniProt O35659); test: Agonistic activity on endogenous GLP-1 receptor (cAMP, murine insulinoma cell line); settings: intracellular cAMP, 15 minutes at 26° C.; read-out: EC50 GLP-1R (murine insulinoma cells)
T2 construct: Agonistic activity of the test compounds on endogenous GLP-1 receptors; endogenous in cells
T2 sequence (O35659 22-463): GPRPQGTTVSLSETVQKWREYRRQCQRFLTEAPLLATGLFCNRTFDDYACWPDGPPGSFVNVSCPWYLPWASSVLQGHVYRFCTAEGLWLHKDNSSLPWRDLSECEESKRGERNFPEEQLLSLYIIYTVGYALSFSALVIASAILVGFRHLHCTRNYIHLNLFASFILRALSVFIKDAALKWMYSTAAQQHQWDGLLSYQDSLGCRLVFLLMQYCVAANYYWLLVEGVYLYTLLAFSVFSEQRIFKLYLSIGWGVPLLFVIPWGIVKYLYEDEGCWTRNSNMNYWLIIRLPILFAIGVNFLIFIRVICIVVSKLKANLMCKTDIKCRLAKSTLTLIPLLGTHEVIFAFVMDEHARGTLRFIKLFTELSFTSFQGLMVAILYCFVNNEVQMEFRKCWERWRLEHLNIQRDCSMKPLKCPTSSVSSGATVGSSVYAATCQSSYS
Method: Agonistic activity of the test compounds on endogenous GLP-1 receptors was determined using a murine insulinoma cell line. Intracellular cAMP was used an indicator of receptor activation.
Cells were cultured for 24 h at a density of 10,000 cells/well in a 384-well plate. Medium was removed and 10 μL KRBH buffer (NaCl 130 mM, KCl 3.6 mM, NaH2PO4 0.5 mM, MgSO4 0.5 mM, CaCl2) 1.5 mM) containing test compound or GLP-1 (at increasing concentrations from […] to 100 nM) or solvent control (0.1% (v/v) DMSO) was added to the wells for 15 minutes at a temperature of 26° C.
The cellular cAMP content is measured using the AlphaScreen cAMP Functional Assay Kit (Perkin Elmer). Measurement was performed using the Envision (PerkinElmer) according to manufacturer's recommendations.
All measurements were performed in quadruplicate.
Results were converted into cAMP concentrations using a cAMP standard curve prepared in KRBH buffer containing 0.1% (v/v) DMSO. The resulting cAMP curves were plotted as absolute cAMP concentrations (nM) over log (test compound concentration) and analyzed using the curve fitting program XLfit.
Parameters calculated to describe the both the potency as well as the agonistic activity of each test compound on the endogenous GLP-1 receptors were:
pEC50 (negative logarithmic value of EC50, a concentration resulting in a half-maximal elevation of cAMP levels, reflecting the potency of the test compound);
Percent control (% CTL)(% cAMP elevation for each test compound concentration normalized based on the GLP-1-induced maximum cAMP response (100% CTL)).

[3] = molecular target: T3, endogenous glucagon receptor (Rattus norvegicus, UniProt P30082); test: Agonistic activity on endogenous glucagon receptor (glycogen synthesis rate in primary rat hepatocytes); settings: inhibition of glycogen synthesis rate, 3 hours, read-out: EC50 GLP-1R Rat hepat.
T3 construct: Agonistic activity of the test compounds on endogenous glucagon receptor; endogenous in cells; host or cells: primary rat hepatocytes
T3 sequence (P30082 27-485): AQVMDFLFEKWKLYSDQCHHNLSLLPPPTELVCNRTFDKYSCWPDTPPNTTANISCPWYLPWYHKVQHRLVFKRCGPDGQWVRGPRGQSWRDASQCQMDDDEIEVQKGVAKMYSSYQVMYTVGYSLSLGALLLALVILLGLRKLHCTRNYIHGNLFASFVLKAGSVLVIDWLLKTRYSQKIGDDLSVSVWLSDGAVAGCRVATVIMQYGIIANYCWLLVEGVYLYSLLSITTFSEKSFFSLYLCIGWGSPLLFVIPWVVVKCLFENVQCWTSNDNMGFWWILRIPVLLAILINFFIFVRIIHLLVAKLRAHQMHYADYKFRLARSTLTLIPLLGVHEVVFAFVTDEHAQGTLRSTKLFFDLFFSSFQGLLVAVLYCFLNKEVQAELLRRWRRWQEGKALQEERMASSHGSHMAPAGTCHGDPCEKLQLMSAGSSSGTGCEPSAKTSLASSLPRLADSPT
Method: Agonistic activity of the test compounds on endogenous glucagon receptor was determined by measuring their effect on rate of glycogen synthesis in primary rat hepatocytes. Upon activation of the glucagon receptor, an inhibition of the glycogen synthesis rate is expected. Rate of glycogen synthesis was determined by counting the amount of radioactively labeled glucose incorporated into the cellular glycogen stores in a defined period of time.
Primary rat hepatocytes were cultured at a density of 40,000 cells/well in a 24-well plate for 24 hours at 37° C. and 5% CO2.
Medium was discarded and the cells washed with PBS. 180 μL of KRBH-based buffer containing 0.1% BSA and glucose at a concentration of 22.5 mM was then added to the wells, followed by test compound and 40 μCi/ml D-[U14C] glucose (20 μL each). Incubation was continued for 3 hours.
At the end of the incubation period, the incubation buffer was aspirated and cells washed once with ice-cold PBS before lysis by incubation for 30 min at room temperature with 100 μL 1 mol/l NaOH.
Cell lysates were transferred to 96-well filter plates and glycogen precipitated by incubating the filter-plates for 120 min at 4° C. followed by washing the filter plates 4 times with ice-cold ethanol (70%). The resulting precipitates were filtered to dryness and the amount of incorporated ^14C-glucose determined by using a Topcount scintillation counter according to manufacturer's recommendations.
Wells with vehicle controls (0.1% (v/v) DMSO in KRBH buffer) were included as reference for non-inhibited glycogen synthesis (100% CTL). Wells without added D-[U^14C] glucose were included as controls for non-specific background signal (subtracted from all values). Endogenous glucagon peptide was used as a positive control.
All treatments were performed at least in triplicates.
Parameters calculated to describe the both the potency as well as the agonistic activity of each test compound on the endogenous glucagon receptor are pEC50 and % CTL. % CTL is determined by calculating the percentage of CPM/well in the presence of the test compound compared to the CPM/well of the vehicle control after subtracting the background CPM/well: [CPM/well(basal)−CPM/well(sample)]*100/[CPM/well(basal)−CPM/well(control)]
An activator of the glucagon receptor will result in an inhibition of the glycogen synthesis rate and will give % CTL values between 0% CTL (complete inhibition) and 100% CTL (no observable inhibition).
The resulting activity curves were plotted as absolute counts (unit: cpm/sample) over log (test compound concentration) and analyzed using the curve fitting program XLfit.
pEC50 (negative logarithmic value of EC50) reflects the potency of the test compound.
The terms EC50 and pEC50 quoted in relation to GLP-1R activation could equally be regarded as IC50 and pIC50 in relation to glycogen synthesis.

[4] = molecular target: T4, human glucagon receptor (Glucagon-R) (Homo sapiens, UniProt P47871); test: Glucagon receptor efficacy assay (cAMP AlphaScreen, CHO cells); settings: Table 1B; same protocol, different laboratory; read-out: EC50 hGCGR CHO-K1
T4 construct: expressed in transfected cells
T4 sequence (P47871 26-477): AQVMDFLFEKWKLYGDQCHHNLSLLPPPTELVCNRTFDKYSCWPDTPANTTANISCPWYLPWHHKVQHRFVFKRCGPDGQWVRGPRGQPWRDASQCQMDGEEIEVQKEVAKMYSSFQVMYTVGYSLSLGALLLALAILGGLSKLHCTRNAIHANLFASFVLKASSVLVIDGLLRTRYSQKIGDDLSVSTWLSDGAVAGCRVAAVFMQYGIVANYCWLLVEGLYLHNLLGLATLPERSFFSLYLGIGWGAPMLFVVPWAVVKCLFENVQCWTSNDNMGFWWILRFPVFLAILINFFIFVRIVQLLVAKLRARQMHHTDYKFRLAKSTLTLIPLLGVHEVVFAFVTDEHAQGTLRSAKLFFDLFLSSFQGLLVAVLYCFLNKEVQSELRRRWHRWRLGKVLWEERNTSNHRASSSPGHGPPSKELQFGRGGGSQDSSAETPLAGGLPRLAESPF
Text: as §1, §2, §3

Row | Ratio GLP-1/Glucagon [1] | EC50 [1] [nM] | EC50 [2] [nM] | EC50 [3] [nM] | EC50 [4] [nM] | SMILES
1 | 0.12 | 0.11 | 0.33 | 6.15 | 0.92 | CCCCCCCCCCCCCCCC(=O)N[C@@H](CCC(=O)NCCCC[C@H](NC(=O)[C@H](CO)NC(=O)[C@H](CCC(=O)O)NC(=O)[C@H](CC(C)C)NC(=O)[C@H](Cc1ccc(O)cc1)NC(=O)[C@H](CCCCN)NC(=O)[C@H](CO)NC(=O)[C@H](Cc1ccc(O)cc1)NC(=O)[C@H](CC(=O)O)NC(=O)[C@H](CO)NC(=O)[C@@H](NC(=O)[C@H](Cc1ccccc1)NC(=O)[C@@H](NC(=O)CNC(=O)[C@H](CCC(N)=O)NC(=O)C(C)(C)NC(=O)[C@@H](N)Cc1c[nH]cn1)[C@@H](C)O)[C@@H](C)O)C(=O)N[C@@H](C)C(=O)N[C@@H](C)C(=O)N[C@@H](CCC(=O)O)C(=O)N[C@@H](CC(=O)O)C(=O)N[C@@H](Cc1ccccc1)C(=O)N[C@H](C(=O)N[C@@H](CCC(=O)O)C(=O)N[C@@H](Cc1c[nH]c2ccccc12)C(=O)N[C@@H](CC(C)C)C(=O)N[C@@H](CCC(=O)O)C(=O)N[C@@H](CO)C(=O)N[C@@H](C)C(N)=O)C(C)C)C(=O)O [Compound 24, H-H-Aib-QGTFTSDYSKYLES-K(Hexadecanoyl-isoGlu)-AAEDFVEWLESA-NH2] (H-H[Aib]QGTFTSDYSKYLESK([γGlu-Palmitoyl])AAEDFVEWLESA-NH2)
2 | 4.6 | 0.23 | 0.89 | 0.18 | 0.05 | CCCCCCCCCCCCCCCC(=O)N[C@@H](CCC(=O)NCCCC[C@H](NC(=O)[C@H](CO)NC(=O)[C@H](CCC(=O)O)NC(=O)[C@H](CC(C)C)NC(=O)[C@H](Cc1ccc(O)cc1)NC(=O)[C@H](CCCCN)NC(=O)[C@H](CO)NC(=O)[C@H](Cc1ccc(O)cc1)NC(=O)[C@H](CC(=O)O)NC(=O)[C@H](CO)NC(=O)[C@@H](NC(=O)[C@H](Cc1ccccc1)NC(=O)[C@@H](NC(=O)CNC(=O)[C@H](Cc1c[nH]cn1)NC(=O)C(C)(C)NC(=O)[C@@H](N)Cc1c[nH]cn1)[C@@H](C)O)[C@@H](C)O)C(=O)N[C@@H](C)C(=O)N[C@@H](C)C(=O)N[C@@H](CCC(=O)O)C(=O)N[C@@H](CCC(=O)O)C(=O)N[C@@H](Cc1ccccc1)C(=O)N[C@H](C(=O)N[C@@H](CCC(=O)O)C(=O)N[C@@H](Cc1c[nH]c2ccccc12)C(=O)N[C@@H](CC(C)C)C(=O)N[C@@H](CCC(=O)O)C(=O)N[C@@H](CO)C(=O)N[C@@H](C)C(=O)O)[C@@H](C)CC)C(=O)O [Compound 17, H-H-Aib-HGTFTSDYSKYLES-K(Hexadecanoyl-isoGlu)-AAEEFIEWLESA-OH] (H-H[Aib]HGTFTSDYSKYLESK([γGlu-Palmitoyl])AAEEFIEWLESA-OH)
3 | 3.38 | 0.27 | 0.33 | 0.06 | 0.08 | CCCCCCCCCCCCCCCC(=O)N[C@@H](CCC(=O)NCCCC[C@H](NC(=O)[C@H](CCC(=O)O)NC(=O)[C@H](CCC(=O)O)NC(=O)[C@H](CC(C)C)NC(=O)[C@H](Cc1ccc(O)cc1)NC(=O)[C@H](CCCCN)NC(=O)[C@H](CO)NC(=O)[C@H](Cc1ccc(O)cc1)NC(=O)[C@H](CC(=O)O)NC(=O)[C@H](CO)NC(=O)[C@@H](NC(=O)[C@H](Cc1ccccc1)NC(=O)[C@@H](NC(=O)CNC(=O)[C@H](Cc1c[nH]cn1)NC(=O)C(C)(C)NC(=O)[C@@H](N)Cc1c[nH]cn1)[C@@H](C)O)[C@@H](C)O)C(=O)N[C@@H](C)C(=O)N[C@@H](C)C(=O)N[C@@H](Cc1c[nH]cn1)C(=O)N[C@@H](CCC(=O)O)C(=O)N[C@@H](Cc1ccccc1)C(=O)N[C@H](C(=O)N[C@@H](CCC(=O)O)C(=O)N[C@@H](Cc1c[nH]c2ccccc12)C(=O)N[C@@H](CC(C)C)C(=O)N[C@@H](CCC(=O)O)C(=O)N[C@@H](CO)C(=O)N[C@@H](C)C(N)=O)C(C)C)C(=O)O [Compound 19, H-H-Aib-HGTFTSDYSKYLEE-K(Hexadecanoyl-isoGlu)-AAHEFVEWLESA-NH2] (H-H[Aib]HGTFTSDYSKYLEEK([γGlu-Palmitoyl])AAHEFVEWLESA-NH2)
